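Where inhibition never reached the appropriate level, the endpoint shown equals the highest concentration tested. Otherwise, values were interpolated linearly from a five-concentration, 48-hour dose response in 96-well plates. At the GI50, growth is halved.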 The source made the active and inactive calls. No stated cut-off is given here; in the data, active = GI50 up to about 1.1 µM and inactive = higher.
Key:
Experiment in all cases: NCI anticancer screen, dose series, 48 h
[1] = test system: ACHN
[2] = test system: CAKI-1
[3] = test system: HOP-62
[4] = test system: SK-MEL-28
[5] = test system: SF-539
[6] = test system: CCRF-CEM
[7] = test system: HT-29
[8] = test system: K562
[9] = test system: LOX IMVI
[10] = test system: OVCAR-5
[11] = test system: UO-31
[12] = test system: NCI-H226
[13] = test system: MOLT-4
[14] = test system: NCI-H522
[15] = test system: OVCAR-4
[16] = test system: M14

Measured: GI50

Cc1nc(-n2nc(-c3ccccc3)cc2-c2ccccc2)sc1C(=O)/C=C/c1ccc(Cl)cc1
inactive: [1] 20.7 µM | [2] 17.5 µM | [3] 13.3 µM | [4] 16.9 µM | [5] 14.3 µM | [6] 17.3 µM | [7] 14.4 µM | [8] > 10 µM | [9] 13.9 µM | [10] 34.8 µM | [11] 9.06 µM | [12] 16 µM | [13] 11.7 µM | [14] 11.7 µM

CCCCCn1cnc2c1S(=O)(=O)N(C)C(NC(=O)c1ccccc1)=N2
inactive: [1] > 100 µM | [2] > 100 µM | [3] > 100 µM | [4] > 100 µM | [5] > 100 µM | [6] > 100 µM | [7] > 100 µM | [15] > 100 µM | [8] > 100 µM | [9] > 100 µM | [11] > 100 µM | [12] > 100 µM | [13] > 100 µM | [14] > 100 µM

Cc1cccc(C)c1NC(=O)C(=O)Cc1nc2ccccc2s1
inactive: [1] > 100 µM | [2] > 100 µM | [3] > 100 µM | [4] > 100 µM | [5] > 100 µM | [6] > 100 µM | [7] > 100 µM | [15] > 100 µM | [8] > 100 µM | [9] > 100 µM | [10] > 100 µM | [11] > 100 µM | [16] > 100 µM | [12] > 100 µM | [14] > 100 µM

O=c1[nH]c2c(nc1NC13CC4CC(CC(C4)C1)C3)c(=O)oc1ccccc12
inactive: [1] > 100 µM | [2] 2.46 µM | [3] 50.1 µM | [4] > 100 µM | [5] 14.9 µM | [6] > 100 µM | [7] > 100 µM | [8] > 100 µM | [9] 31.6 µM | [10] > 100 µM | [11] > 100 µM | [16] 34.3 µM | [12] 27.9 µM | [13] > 100 µM | [14] 61.1 µM

C=CCOC1=C2CC[C@H](O)[C@@]2(C)CCC1=O
inactive: [1] > 100 µM | [2] > 100 µM | [3] > 100 µM | [4] > 100 µM | [5] > 100 µM | [6] > 100 µM | [7] > 100 µM | [15] > 100 µM | [9] > 100 µM | [10] > 100 µM | [11] > 100 µM | [16] > 100 µM | [12] > 100 µM | [13] > 100 µM | [14] > 100 µM

— ChEMBL document CHEMBL1201862, “PubChem BioAssay data set” (2004)
